Earlier results, collected in patent publication US20240423997A1, “METHOD OF TREATING AMYOTROPHIC LATERAL SCLEROSIS” (priority 2021, published 2024).

Details: in vivo; Shibuya 2001; cited from earlier work

## O=S(=O)(c1cccc2c(O)nccc12)N1CCCNCC1 [M3, hydroxyfasudil]
  half-life: about 8 hours
